{
  "source": "patent US20130158016A1",
  "about": "“ANESTHETIC ASSOCIATION, ANESTHETIC COMPOSITION, AND […] VETERINARY USE” (Ouro Fino Participacoes e Empreendimentsos S/A, priority 2010, published 2013)",
  "origin": "cited, not measured here",
  "system": "female dogs",
  "conditions": "2 mg/kg intravenously (slow), prophylactic",
  "data": [
    {"compound": "COc1cccc(C2(O)CCCCC2CN(C)C)c1", "note": "(stereo not drawn) [tramadol]", "values": [
      {"measurement": "analgesia after ovariosalpingohisterectomy", "value": "analgesia similar to that produced by morphine"},
      {"measurement": "effect on expired concentration of isoflurane", "value": "reducing the expired concentration of isoflurane"},
      {"measurement": "neuroendocrine response to pain (catecholamine and cortisol)", "value": "reducing the peaks of catecholamine and cortisol"}
    ]}
  ]
}
